This is an account of results in US20110269758A1, “NAPHTHYRIDINONES AS PROTEIN KINASE INHIBITORS” (MERCK PATENT GMBH, priority 2008, published 2011).

SMILES strings stand for the structures.

One test deals with Aurora Kinase B (Homo sapiens, UniProt Q96GD4). Put plainly: Biochemical enzyme assay for Aurora B activity (Caliper mobility shift). Particulars: LC3000 or Desktop Profiler. The protocol:
(§1) The Aurora assays described here were performed on two Caliper Life Sciences systems, the LC3000 and the Desktop Profiler. These provide data on enzyme activity via measurement of the relative amounts of phosphorylated or unphosphorylated fluorescently labelled substrate peptide at the end of an enzymatic reaction. These different states of peptide are resolved by applying a potential difference across the sample. The presence of a charged phosphate group on the product (as opposed to the substrate) causes a different peptide mobility between the two peptides. This is visualized by excitation of a fluorescent label on the substrate and product peptides and represented as peaks within the analysis software.
(§2) The Desktop Profiler utilizes the same prinicipal as the LC 3000 for calculating percentage conversion of a substrate to product. Caliper Life Sciences provided proprietary flash frozen pre-made 384 well plates containing selected kinases. Each column in the 384 well plate contained a particular selected kinase. A second plate, the ‘substrate plate’ contained a mix of fluorescently labeled peptide substrate and ATP. These were arranged in columns so that transfer for substrate plate to enzyme plate provided the correct enzyme with the correct substrate/ATP concentration.
(§3) Compounds were added to a thawed enzyme plate in the desired format, in single concentrations. Reactions were initiated by transfer of the substrate/ATP mix from the substrate plate. The enzyme plate was incubated for 90 mins at 25° C. The reaction was stopped by addition of 70 μl of Stop Buffer (100 mM HEPES pH 7.5, 0.015% Brij-35, 10 mM EDTA (Sigma, E7889)).
Plates were read in a manner identical to that of the LC3000, and the ratio between substrate and product peaks provided the activity of the enzyme in that well. This was best represented by a plate heat map which colors each well by percent inhibition as compared to positive and negative controls (no inhibitors and no ATP respectively).

The next test addresses T1, Aurora Kinase A (Homo sapiens, UniProt O14965).
T1 construct: full length Aurora A (1-403 amino acids); purchased Carna Biosciences 05-101
T1 sequence (O14965 1-403): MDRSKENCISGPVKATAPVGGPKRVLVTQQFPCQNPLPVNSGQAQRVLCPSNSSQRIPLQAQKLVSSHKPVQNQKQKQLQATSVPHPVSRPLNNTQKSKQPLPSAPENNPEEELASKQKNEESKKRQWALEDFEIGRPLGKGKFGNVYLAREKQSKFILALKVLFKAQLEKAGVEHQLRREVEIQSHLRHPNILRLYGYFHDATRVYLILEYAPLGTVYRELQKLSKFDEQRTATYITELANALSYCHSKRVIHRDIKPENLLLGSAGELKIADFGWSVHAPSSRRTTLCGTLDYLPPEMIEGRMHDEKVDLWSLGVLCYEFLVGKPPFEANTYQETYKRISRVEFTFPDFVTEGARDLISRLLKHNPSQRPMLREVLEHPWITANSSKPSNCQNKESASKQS
Put plainly: Biochemical enzyme assay for Aurora A activity (Caliper LC3000 / Desktop Profiler mobility shift). Particulars: GST-Aurora A, 15 μM ATP, 90 min at 25° C.; LC3000 or Desktop Profiler; read-out: Aurora Kinase A IC50. The protocol:
as §1
In order to measure inhibitor activity of Aurora A inhibitors in the Caliper Life Sciences LC3000, a TTP Mosquito liquid handling instrument was used to place 0.25 μl of an appropriate concentration of inhibitor in 100% DMSO (for a dose response curve calculation) into each well of a 384-well plate.
The reaction was incubated for 90 min at 25° C., and then stopped by the addition of 70 μl of Stop buffer (100 mM HEPES pH 7.5, 0.015% Brij-35, 10 mM EDTA (Sigma, E7889)).
The plate was read on a Caliper LC 3000 in an Off-Chip mobility shift assay format, using the following parameters for a 12-sipper chip: screening pressure −1.8 psi, upstream voltage −2700, downstream voltage −1000. These conditions cause unphosphorylated substrate and phosphorylated product peptide to resolve as separate peaks allowing direct measurement of percentage of conversion of substrate to product.
as §2, §3
Plates were read in a manner identical to that of the LC3000, and the ratio between substrate and product peaks provided the activity of the enzyme in that well.

The test system of test [1] is cyclin-dependent kinases (CDKs) and Aurora kinases. To be noted: cited from earlier work.
Test [2] has as its system tumor cells of various origins. To be noted: cited from earlier work.
Test [3] deals with leukemia, colon and pancreatic tumors. To be noted: variety of in vivo xenograft models, well-tolerated doses; cited from earlier work.
The next test concerns human tumor types. Particulars: diverse range of human tumor types; cited from earlier work.

Aurora Kinase B, sequence (Q96GD4 whole entry): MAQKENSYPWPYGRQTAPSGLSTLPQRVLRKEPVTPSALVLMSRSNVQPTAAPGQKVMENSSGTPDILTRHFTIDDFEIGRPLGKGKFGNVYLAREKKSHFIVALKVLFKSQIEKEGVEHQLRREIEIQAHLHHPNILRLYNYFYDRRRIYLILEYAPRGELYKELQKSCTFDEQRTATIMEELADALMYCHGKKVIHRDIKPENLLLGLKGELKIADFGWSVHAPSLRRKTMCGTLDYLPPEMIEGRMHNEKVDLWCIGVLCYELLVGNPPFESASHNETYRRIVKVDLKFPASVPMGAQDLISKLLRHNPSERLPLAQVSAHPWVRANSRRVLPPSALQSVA

Regarding `Nc1cc2c(Nc3ccc(NC(=O)c4ccc(F)cc4C(F)(F)F)cc3)ccnc2[nH]c1=O` [Compound 90, 4-Fluoro-2-trifluoromethyl-N-(4-(6-amino-7-oxo-7,8-dihydro-1,8-naphthyridin-4-yl-amino)phenyl)benzamide], the concentration for half-maximal inhibition (IC50) at Aurora Kinase B and at Aurora Kinase A was 1 to 300 nM throughout.
As for `O=C(Nc1ccc(Nc2ccnc3[nH]c(=O)cc(O)c23)cc1)c1ccc(F)cc1C(F)(F)F` [Compound 91, 4-Fluoro-N-[4-(5-hydroxy-7-oxo-7,8-dihydro-[1,8]naphthyridin-4-ylamino)-phenyl]-2 trifluoromethyl-benzamide], the 50% inhibitory concentration (IC50) at Aurora Kinase B and on Aurora Kinase A was 1 to 300 nM each time.
Take `O=C(Nc1ccc(Nc2ccnc3[nH]c(=O)cc(O)c23)cc1)c1ccccc1` [Compound 92, N-[4-(5-Hydroxy-7-oxo-7,8-dihydro-[1,8]naphthyridin-4-ylamino)-phenyl]-benzamide]: the IC50 on Aurora Kinase B and at Aurora Kinase A was 1 to 300 nM in each case.
On to `O=C(Nc1ccc(Nc2ccnc3[nH]c(=O)cc(OCC4CC4)c23)cc1)c1ccccc1` [Compound 93, N-[4-(5-Cyclopropylmethoxy-7-oxo-7,8-dihydro-[1,8]naphthyridin-4-ylamino)-phenyl]benzamide], for which the IC50 on Aurora Kinase B and on Aurora Kinase A was 1 to 300 nM each time.
Turning to `Cc1cc(=O)[nH]c2nccc(Nc3ccc(NC(=O)c4ccccc4)cc3)c12` [Compound 94, N-[4-(5-Methyl-7-oxo-7,8-dihydro-[1,8]naphthyridin-4-ylamino)-phenyl]-benzamide], the IC50 on Aurora Kinase B and at Aurora Kinase A was 1 to 300 nM in each case.
As for `Cc1cc(=O)[nH]c2nccc(Nc3ccc(NC(=O)c4ccc(F)cc4C(F)(F)F)cc3)c12` [Compound 95, 4-Fluoro-N-[4-(5-methyl-7-oxo-7,8-dihydro-[1,8]naphthyridin-4-ylamino)-phenyl]-2 trifluoromethyl-benzamide], the IC50 on Aurora Kinase B and on Aurora Kinase A was 1 to 300 nM throughout.
As for `O=C(Nc1ccc(Nc2ccnc3[nH]c(=O)c(F)cc23)cc1)c1ccc(F)cc1C(F)(F)F` [Compound 96, 4-Fluoro-N-[4-(6-fluoro-7-oxo-7,8-dihydro-[1,8]naphthyridin-4-ylamino)-phenyl]-2 trifluoromethyl-benzamide], the half-maximal inhibitory concentration (IC50) at Aurora Kinase B and at Aurora Kinase A was 1 to 300 nM throughout.
Consider `Nc1nc(Nc2ccc(S(N)(=O)=O)cc2)nn1C(=O)c1c(F)cccc1F` [JNJ-7706621], for which the “inhibition of CDKs and Aurora kinases” value in test [1] was “potent inhibition”. Moreover, the “proliferation of tumor cells” value in test [2] is reported as “selectively blocked proliferation”.
Regarding `Cc1cc(Nc2cc(N3CCN(C)CC3)nc(Sc3ccc(NC(=O)C4CC4)cc3)n2)n[nH]1` [VX-680], in test [3], the “inhibition of tumor growth” value was “profound inhibition of tumor growth”. In addition, the “effect on cell-cycle progression and apoptosis” value in the test on human tumor types was “blocks cell-cycle progression and induces apoptosis”.
